Key:
[1] = test system: human erythroid progenitors (CFU-E, BFU-E); assay: Colony forming cell assay, human erythroid progenitor (CFU-E, BFU-E) proliferation; type: cell-based; settings: 336 h, single agent, 14 days, CFU-E and BFU-E
Protocol: (§1) Clonogenic progenitors of human erythroid (CFU-E, BFU-E), granulocyte-monocyte (CFU-GM), and multipotential (CFU-GEMM) lineages were assessed in a semi-solid methylcellulose-based media formulation containing rhIL-3 (10 ng/mL), rhGM-SCF (10 ng/mL), rhSCF (50 ng/mL), and Epo (3 U/mL).
(§2) In addition, 5-FU was evaluated at 1.0, 0.1 and 0.01 μg/mL as a positive control for toxicity.
(§3) Normal human bone marrow light density cells (lot #0210901), derived from normal bone marrow, (Lonza, Maryland) and qualified at ReachBio, were stored at −152° C. until required for the assay. On the day of the experiment, the cells were thawed rapidly, diluted in 10 mL of Iscove's modified Dulbecco's medium containing 10% fetal bovine serum (IMDM+10% FBS) and washed by centrifugation (approximately 1500 r.p.m. for 10 minutes at room temperature). The supernatant was discarded and the cell pellets were resuspended in a known volume of IMDM+10% FBS. A cell count (3% glacial acetic acid) and viability assessment (trypan blue exclusion test) was performed for the bone marrow sample.
Clonogenic progenitors of human megakaryocyte (CFU-Mk) were assessed in a collagen-based media formulation containing rhIL-3 (10 ng/mL), rhIL-6 (10 ng/mL), and Tpo (50 ng/mL). Clonogenic progenitors of the human erythroid (CFU-E and BFU-E), myeloid (CFU-GM), and megakaryocyte (CFU-Mk) lineages were set up in the media formulations described above. Individually, the test compounds were added to the medium to give the final desired concentrations (10, 3.33, 1, 0.333, 0.1, 0.0333, 0.01 and 0.00333 μM). […]
Human myeloid and erythroid progenitor assays were initiated at 1.2×10^4 cells per culture (lot #0210921) and the human megakaryocyte assays were initiated at 1.2×10^5 cells per culture (lot #0210921). Following 14 days in culture, erythroid and myeloid colonies were assessed microscopically in situ and scored by trained personnel. […] The colonies were assessed microscopically and scored by trained personnel and divided into the following categories based on size: CFU-Mk (3-20), CFU-Mk (21-49), and CFU-Mk (≥50).
Statistical analysis: The mean±standard deviation of three replicate cultures was calculated for both erythroid and myeloid progenitors. […]
(§4) Erythroid (CFU-E and BFU-E) and myeloid (CFU-GM) colony enumeration was performed by trained personnel. In addition, the distribution of colony types as well as general colony and cellular morphology was analyzed. The variance in colony number detected in replicate cultures was representative of the historical coefficient of variation for colony enumeration using these types of assays. The number and distribution of colonies detected in the solvent control (0.1% DMSO for single agents) was no different from the standard control (containing no compound and no DMSO). […]

[2] = test system: human myeloid progenitors (CFU-GM); assay: Colony forming cell assay, human myeloid (granulocyte-monocyte, CFU-GM) progenitor proliferation; type: cell-based; settings: single agent
Protocol: as §1, §2, §3
Clonogenic progenitors of human megakaryocyte (CFU-Mk) were assessed in a collagen-based media formulation containing rhIL-3 (10 ng/mL), rhIL-6 (10 ng/mL), and Tpo (50 ng/mL). Clonogenic progenitors of the human erythroid (CFU-E and BFU-E), myeloid (CFU-GM), and megakaryocyte (CFU-Mk) lineages were set up in the media formulations described above. Individually, the test compounds were added to the medium to give the final desired concentrations (10, 3.33, 1, 0.333, 0.1, 0.0333, 0.01 and 0.00333 μM). […] Solvent control cultures (containing no compound but 0.1% DMSO) as well as standard controls (containing no compound and no DMSO) were also initiated. Once introduced into the matrices, the tubes were vortexed to ensure an equal distribution throughout.
Human myeloid and erythroid progenitor assays were initiated at 1.2×10^4 cells per culture (lot #0210921) and the human megakaryocyte assays were initiated at 1.2×10^5 cells per culture (lot #0210921). Following 14 days in culture, erythroid and myeloid colonies were assessed microscopically in situ and scored by trained personnel. The colonies were divided into the following categories based on size and morphology: CFU-E, BFU-E, CFU-GM, and CFU-GEMM. The human megakaryocyte cultures were transferred from the 35 mm dishes to labeled glass slides, fixed with methanol/acetone fixative, and then stained with anti-human CD41 antibody and an alkaline phosphate detection system according to manufacturers' instructions. The colonies were assessed microscopically and scored by trained personnel and divided into the following categories based on size: CFU-Mk (3-20), CFU-Mk (21-49), and CFU-Mk (≥50).
Statistical analysis: The mean±standard deviation of three replicate cultures was calculated for both erythroid and myeloid progenitors. Two-tailed standard t-tests were performed to assess if there was a difference in the number of colonies generated between solvent control and treated cultures. Due to the potential subjectivity of colony enumeration, a p value of less than 0.01 is deemed significant. To calculate the concentration of 50% inhibition of colony growth (IC50) for each compound, a dose response curve was generated plotting the log of the compound concentration versus the percentage of control colony growth using GraphPad Prism 9 software.
as §4

[3] = test system: PIM1; settings: read-out: Preclinical IC50, PIM1; cited from earlier work

SMILES: CC(C)(O)[C@H]1CC[C@H](Nc2ccc3ncc(-c4cccc(C(F)(F)F)c4)n3n2)CC1 [Compound (1)]
- IC50 [1]: 4250 nM
- IC50 ([2]; Homo sapiens, 336 h, 14 days, CFU-GM): 1310 nM
- concentrations at which myeloid progenitor proliferation was (significantly, additionally) inhibited ([2]; vs 0.1% DMSO solvent control, p<0.01): 1.0 µM
- IC50 [3]: 5 nM
